Test results as given in ChEMBL document CHEMBL1250451, “Mechanistic insights into a Ca2+-dependent family of alpha-mannosidases in a human gut symbiont” (Nat Chem Biol, 2010).

Assays:
Assay type in all cases: protein assay
[1] = biological target: T1, Alpha-1,2-mannosidase (BT_3990) (Bacteroides thetaiotaomicron) (UniProt Q8A0N1); experiment: Activity of Bacteroides thetaiotaomicron GH92 alpha-mannosidase 3990 assessed as recovery of enzyme activity at 1 mM relative to enzyme activity in presence of calcium
T1 sequence (whole entry): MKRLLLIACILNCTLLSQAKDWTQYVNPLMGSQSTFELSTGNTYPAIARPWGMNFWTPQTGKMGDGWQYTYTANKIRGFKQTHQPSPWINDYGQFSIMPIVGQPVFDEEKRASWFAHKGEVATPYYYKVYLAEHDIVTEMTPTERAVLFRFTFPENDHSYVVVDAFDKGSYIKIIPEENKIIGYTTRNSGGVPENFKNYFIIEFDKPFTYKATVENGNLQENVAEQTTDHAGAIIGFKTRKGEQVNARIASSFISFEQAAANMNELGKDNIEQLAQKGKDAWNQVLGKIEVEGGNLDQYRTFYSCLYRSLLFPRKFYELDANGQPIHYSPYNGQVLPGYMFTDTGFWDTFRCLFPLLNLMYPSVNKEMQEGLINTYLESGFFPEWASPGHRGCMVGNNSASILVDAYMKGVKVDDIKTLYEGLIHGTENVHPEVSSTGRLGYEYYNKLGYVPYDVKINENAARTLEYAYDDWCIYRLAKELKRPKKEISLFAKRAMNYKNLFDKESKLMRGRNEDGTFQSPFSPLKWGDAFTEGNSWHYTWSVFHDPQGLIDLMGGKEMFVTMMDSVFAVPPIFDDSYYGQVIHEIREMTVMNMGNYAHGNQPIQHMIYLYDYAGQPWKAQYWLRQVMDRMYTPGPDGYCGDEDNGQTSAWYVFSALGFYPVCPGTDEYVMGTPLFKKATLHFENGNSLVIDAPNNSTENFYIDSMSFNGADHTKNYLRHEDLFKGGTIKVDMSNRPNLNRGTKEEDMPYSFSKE

[2] = biological target: T1, Alpha-1,2-mannosidase (BT_3990) (Bacteroides thetaiotaomicron); experiment: Activity of Bacteroides thetaiotaomicron GH92 alpha-mannosidase 3990 assessed as recovery of enzyme activity at 1 mM in presence of 7 mM V(3+) ions and in presence of 5 mM EDTA in 100 mM pH 7 MOPS buffer relative to enzyme activity in presence of calcium
[3] = biological target: T1, Alpha-1,2-mannosidase (BT_3990) (Bacteroides thetaiotaomicron); experiment: Activity of Bacteroides thetaiotaomicron GH92 alpha-mannosidase 3990 assessed as recovery of enzyme activity at 1 mM in presence of 7 mM Mn(2+) ions and in presence of 5 mM EDTA in 100 mM pH 7 MOPS buffer relative to enzyme activity in presence of calcium
[4] = biological target: T1, Alpha-1,2-mannosidase (BT_3990) (Bacteroides thetaiotaomicron); experiment: Activity of Bacteroides thetaiotaomicron GH92 alpha-mannosidase 3990 assessed as recovery of enzyme activity at 1 mM in presence of 7 mM Ba(2+) ions and in presence of 5 mM EDTA in 100 mM pH 7 MOPS buffer relative to enzyme activity in presence of calcium
[5] = biological target: T2, Alpha-1,2-mannosidase (BT_2199) (Bacteroides thetaiotaomicron) (UniProt Q8A5N9); experiment: Activity of Bacteroides thetaiotaomicron GH92 alpha-mannosidase 2199 assessed as recovery of enzyme activity at 1 mM in presence of 7 mM Sc(3+) ions and in presence of 5 mM EGTA in 100 mM pH 7 MOPS buffer relative to enzyme activity in presence of calcium
T2 sequence (whole entry): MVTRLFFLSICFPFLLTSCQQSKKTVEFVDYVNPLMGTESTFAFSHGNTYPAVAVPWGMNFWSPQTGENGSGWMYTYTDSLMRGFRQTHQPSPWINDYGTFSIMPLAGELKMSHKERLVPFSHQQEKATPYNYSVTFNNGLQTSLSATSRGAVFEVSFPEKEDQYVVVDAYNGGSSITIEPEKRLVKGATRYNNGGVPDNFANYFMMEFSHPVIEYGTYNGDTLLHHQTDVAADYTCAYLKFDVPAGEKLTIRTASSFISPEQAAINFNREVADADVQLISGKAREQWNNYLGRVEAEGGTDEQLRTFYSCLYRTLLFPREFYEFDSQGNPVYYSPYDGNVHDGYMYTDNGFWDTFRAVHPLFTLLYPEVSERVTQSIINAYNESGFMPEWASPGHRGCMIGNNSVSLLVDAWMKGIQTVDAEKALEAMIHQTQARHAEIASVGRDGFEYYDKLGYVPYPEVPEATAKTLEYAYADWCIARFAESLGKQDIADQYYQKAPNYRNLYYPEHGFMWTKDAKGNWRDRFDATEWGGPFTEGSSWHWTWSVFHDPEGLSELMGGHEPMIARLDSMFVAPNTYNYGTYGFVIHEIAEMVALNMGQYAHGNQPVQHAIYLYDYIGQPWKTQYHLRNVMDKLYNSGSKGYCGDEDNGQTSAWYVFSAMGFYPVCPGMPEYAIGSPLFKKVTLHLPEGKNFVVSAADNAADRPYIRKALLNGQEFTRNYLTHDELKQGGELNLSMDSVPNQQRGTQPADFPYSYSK

[6] = biological target: T1, Alpha-1,2-mannosidase (BT_3990) (Bacteroides thetaiotaomicron); experiment: Activity of Bacteroides thetaiotaomicron GH92 alpha-mannosidase 3990 assessed as recovery of enzyme activity at 1 mM in presence of 7 mM Co(2+) ions and in presence of 5 mM EDTA in 100 mM pH 7 MOPS buffer relative to enzyme activity in presence of calcium
[7] = biological target: T1, Alpha-1,2-mannosidase (BT_3990) (Bacteroides thetaiotaomicron); experiment: Activity of Bacteroides thetaiotaomicron GH92 alpha-mannosidase 3990 assessed as recovery of enzyme activity at 1 mM in absence of metal and in presence of 5 mM EDTA in 100 mM pH 7 MOPS buffer relative to enzyme activity in presence of calcium
[8] = biological target: T2, Alpha-1,2-mannosidase (BT_2199) (Bacteroides thetaiotaomicron); experiment: Activity of Bacteroides thetaiotaomicron GH92 alpha-mannosidase 2199 assessed as recovery of enzyme activity at 1 mM in presence of 7 mM Ti(3+) ions and in presence of 5 mM EGTA in 100 mM pH 7 MOPS buffer relative to enzyme activity in presence of calcium
[9] = biological target: T2, Alpha-1,2-mannosidase (BT_2199) (Bacteroides thetaiotaomicron); experiment: Activity of Bacteroides thetaiotaomicron GH92 alpha-mannosidase 2199 assessed as recovery of enzyme activity at 1 mM in presence of 7 mM Mn(2+) ions and in presence of 5 mM EDTA in 100 mM pH 7 MOPS buffer relative to enzyme activity in presence of calcium
[10] = biological target: T1, Alpha-1,2-mannosidase (BT_3990) (Bacteroides thetaiotaomicron); experiment: Activity of Bacteroides thetaiotaomicron GH92 alpha-mannosidase 3990 assessed as recovery of enzyme activity at 1 mM in presence of 7 mM Be(2+) ions and in presence of 5 mM EGTA in 100 mM pH 7 MOPS buffer relative to enzyme activity in presence of calcium
[11] = biological target: T2, Alpha-1,2-mannosidase (BT_2199) (Bacteroides thetaiotaomicron); experiment: Activity of Bacteroides thetaiotaomicron GH92 alpha-mannosidase 2199 assessed as recovery of enzyme activity at 1 mM in presence of 7 mM Ba(2+) ions and in presence of 5 mM EDTA in 100 mM pH 7 MOPS buffer relative to enzyme activity in presence of calcium
[12] = biological target: T1, Alpha-1,2-mannosidase (BT_3990) (Bacteroides thetaiotaomicron); experiment: Activity of Bacteroides thetaiotaomicron GH92 alpha-mannosidase 3990 assessed as recovery of enzyme activity at 1 mM in presence of 7 mM Ti(3+) ions and in presence of 5 mM EDTA in 100 mM pH 7 MOPS buffer relative to enzyme activity in presence of calcium

Structure (SMILES) | Activity [1] [%] | Activity [2] [%] | Activity [3] [%] | Activity [4] [%] | Activity [5] [%] | Activity [6] [%] | Activity [7] [%] | Activity [8] [%] | Activity [9] [%] | Activity [10] [%] | Activity [11] [%] | Activity [12] [%]
OC[C@H]1O[C@H](OC[C@H]2O[C@H](O)[C@@H](O)[C@@H](O)[C@@H]2O)[C@@H](O)[C@@H](O)[C@@H]1O | 65 |  |  |  |  |  |  |  |  |  |  | 
O=[N+]([O-])c1ccc(O[C@H]2O[C@H](CO)[C@@H](O)[C@H](O)[C@@H]2O)cc1 |  | 0 | 13 | 0 | 0 | 12 | 0 | 0 | 8 | 0 | 0 | 0
